Consider 1 molecule from ChEMBL document CHEMBL5223109, “The discovery of BMS-737 as a potent, CYP17 lyase-selective inhibitor for the treatment of castration-resistant prostate cancer” (Bioorg Med Chem Lett, 2022).

What is called IC50 is the concentration needed to halve the response being measured. For orientation: half-life means the time needed for the level to fall by half in the phase considered. In general, AUC refers to concentration integrated over time.

Data set [1] addresses T1, Steroid 17-alpha-hydroxylase/17,20 lyase (Homo sapiens, UniProt P05093).
T1 sequence (P05093 whole entry): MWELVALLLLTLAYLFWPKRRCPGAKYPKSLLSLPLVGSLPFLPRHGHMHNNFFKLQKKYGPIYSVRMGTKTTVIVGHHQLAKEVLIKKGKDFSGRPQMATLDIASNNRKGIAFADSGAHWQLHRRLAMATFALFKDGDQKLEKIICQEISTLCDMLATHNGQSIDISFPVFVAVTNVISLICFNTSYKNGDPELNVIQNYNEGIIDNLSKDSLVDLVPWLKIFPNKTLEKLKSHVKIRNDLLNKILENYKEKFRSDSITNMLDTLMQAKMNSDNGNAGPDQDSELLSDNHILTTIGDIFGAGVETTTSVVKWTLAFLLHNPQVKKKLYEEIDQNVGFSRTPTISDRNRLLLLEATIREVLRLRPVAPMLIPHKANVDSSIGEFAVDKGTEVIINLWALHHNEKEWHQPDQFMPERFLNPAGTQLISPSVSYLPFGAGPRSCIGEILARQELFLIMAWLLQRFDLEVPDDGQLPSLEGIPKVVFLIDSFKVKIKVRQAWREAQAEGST
Kind of data set: Inhibition of human adrenal gland CYP17A1. It counts as ADME, tissue-based.

Data set [2] is described as follows: Inhibition of cynomolgus monkey CYP21A2. The data set is classed as ADME, Macaca fascicularis.
A short description of data set [3]: Half-life in cynomolgus monkey at 1 mg/kg, iv. The data set is classed as ADME, organism-based, Macaca fascicularis. The settings on record: in vivo.
A short description of data set [4]: AUC in cynomolgus monkey at 1 mg/kg, po. It counts as ADME, organism-based, Macaca fascicularis. Details: dose 1 mg/kg, route po. The settings on record: in vivo.
Data set [5] has as its target T2, Nuclear receptor subfamily 1 group I member 2 (Homo sapiens, UniProt O75469).
T2 sequence (O75469 whole entry): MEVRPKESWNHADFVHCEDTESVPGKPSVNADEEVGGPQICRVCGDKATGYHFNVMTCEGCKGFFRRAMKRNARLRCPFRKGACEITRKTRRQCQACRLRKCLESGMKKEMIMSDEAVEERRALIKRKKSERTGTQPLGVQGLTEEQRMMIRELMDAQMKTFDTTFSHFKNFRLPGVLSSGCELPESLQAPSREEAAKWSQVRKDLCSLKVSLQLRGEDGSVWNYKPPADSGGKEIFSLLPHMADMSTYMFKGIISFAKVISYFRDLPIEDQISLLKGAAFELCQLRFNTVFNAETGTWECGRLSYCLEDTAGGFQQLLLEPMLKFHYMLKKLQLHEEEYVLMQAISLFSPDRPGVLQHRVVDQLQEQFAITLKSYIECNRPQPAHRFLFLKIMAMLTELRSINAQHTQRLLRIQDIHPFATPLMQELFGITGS
Put plainly: Inhibition of PXR (unknown origin).

As for `Nc1ncncc1-c1ccnc2c1cnn2-c1ccc(F)cc1`, the IC50 is 0.03 µM in data set [1], above 10 µM in data set [2] and above 50 µM in data set [5]. For the same molecule, the half-life in data set [3] is 16 h. Besides, the AUC in data set [4] is 26 µM·h.
